Test results reported in patent US20120114588A1, “IBAT INHIBITORS FOR TREATMENT OF METABOLIC DISORDERS AND RELATED CONDITIONS” (ALBIREO AB, priority 2010, published 2012).

What was measured:
[1] = Phase IIb placebo-controlled study in patients with Chronic Idiopathic Constipation: plasma glucose; format: in vivo, human (patients); conditions: for Glucose concentration, Baseline, Mean ± SD: 10 mg group
Text: In a Phase Ilb, Double-blind, Randomised, Placebo-controlled, Multi-centre, Dose-finding,
Efficacy and Safety of a Range of Doses of the substance according to Example 14 in Patients with Chronic Idiopathic Constipation in addition also have glucose values above Upper limit of normal (ULN), treated for 56 days. The patient was a male or non-pregnant female 20 years of age and 80 years of age with body mass index (BMI) 18.5 but <35.
p-values were obtained from an analysis of covariance with treatment group, demographic group and treatment-by-demographic group as fixed factors and baseline value as a covariate in the model. No adjustment for multiple comparisons was made.

[2] = target: T1, Ileal Bile Acid Transporter Human (Homo sapiens, UniProt Q12908); assay: ISBT Hu HEK Uptake SPA: Human HEK Glycocholic acid Uptake Radiometric SPA; format: cell-based; conditions: human IBAT in HEK cells
T1 construct: expressed in transfected cells; host or cells: HEK
T1 sequence (Q12908 1-348): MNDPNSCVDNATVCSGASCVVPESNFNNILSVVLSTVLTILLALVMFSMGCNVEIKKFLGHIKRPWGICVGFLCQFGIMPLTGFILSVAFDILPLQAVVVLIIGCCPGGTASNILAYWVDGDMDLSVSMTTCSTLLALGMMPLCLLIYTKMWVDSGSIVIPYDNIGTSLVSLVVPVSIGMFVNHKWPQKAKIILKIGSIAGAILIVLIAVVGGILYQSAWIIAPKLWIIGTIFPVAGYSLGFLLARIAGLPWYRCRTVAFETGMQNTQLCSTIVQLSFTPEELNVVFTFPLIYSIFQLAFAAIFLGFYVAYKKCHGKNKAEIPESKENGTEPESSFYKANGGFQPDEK
Method: ISBT Hu HEK Uptake SPA 13203 IBAT HUM Ileal Bile Acid Transporter Human HEK Glycocholic acid Uptake Radiometric—SPA Inhibitor IC50 Mean IC50 (nM) was determined for the compounds of examples 1-14

Slc10a2 protein = target: T2, Slc10a2 protein (Mus musculus, UniProt P70172); assay: ob/ob mice gavaged with Slc10a2 inhibitor for 11 days: plasma, liver and distal ileum analyses; format: in vivo
T2 construct: from tissue; host or cells: living male ob/ob mice (Taconic), ileum in vivo
T2 sequence (P70172 1-348): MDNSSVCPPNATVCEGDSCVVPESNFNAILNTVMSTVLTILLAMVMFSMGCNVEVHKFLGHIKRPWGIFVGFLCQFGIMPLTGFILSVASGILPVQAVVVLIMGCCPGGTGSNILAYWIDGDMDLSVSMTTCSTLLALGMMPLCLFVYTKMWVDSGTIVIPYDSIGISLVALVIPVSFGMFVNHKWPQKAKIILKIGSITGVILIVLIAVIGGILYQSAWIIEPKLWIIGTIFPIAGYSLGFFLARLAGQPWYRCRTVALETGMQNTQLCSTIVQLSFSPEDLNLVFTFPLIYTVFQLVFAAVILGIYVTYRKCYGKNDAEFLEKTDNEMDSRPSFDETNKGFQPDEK
Text: A diet enriched in sucrose (D12329, Research Diets, NJ) together with drinking water supplemented with 10% fructose was used for the high carbohydrate experiment. Animals had free access to the diet for two weeks. Control animals received standard mouse chow and tap water. Male ob/ob animals were from Taconic, DK. Ob/ob animals were gavaged with a specific Slc10a2 inhibitor Example 14 or a control vehicle for 11 days. Animals had free access to food and water. All animal care and experiments were conducted in accordance with accepted standards of humane animal care and approved by the Ethics Committee of Goteborg University.
Blood was centrifuged, and plasma was analyzed for total cholesterol and TGs using the IL TestTM cholesterol 181618-10 and TG 181610-60 kits on the Monarch 2000 system (IL Scandinavia, Gothenburg, Sweden). Lipoprotein cholesterol profiles were obtained by separation of […] of plasma using a micro fast protein liquid chromatography (FPLC) system for the generation of lipoprotein profiles (15). Plasma insulin levels were analyzed using a rodent insulin RIA kit (Linco, St. Charles, Mich.). Total plasma glucose was analyzed using the IL Test (IL Scandinavia, Gothenburg, Sweden) on the Monark 2000 system. Blood glucose was determined using a Bayer Elite glucometer (Bayer diagnostics, Germany). Plasma free fatty acids were analyzed employing a commercial 3 NEFA kit (Wako Chemicals
Total RNA was extracted from frozen livers or distal ileum with TRIzol reagent (Invitrogen, Carlsbad, Calif.). The RNA was DNase-treated with RQ1 Dnase (Promega, Madison, Wis.). cDNA synthesis and quantitative real time PCR was performed employing HPRT as endogenous control (18). Primer and probe information are available upon request.
A ligand blot employing ^125I-labeled rabbit β-VLDL was used to detect LDL receptors in liver as described (19). Hepatic SR-BI was assayed by immunoblot using a rodent specific rabbit polyclonal antibody (Novus Biologicals Inc., Littleton, Colo.), as described (20). Cyp7a1 protein levels were assayed in liver microsomal protein samples by immunoblot using a rabbit polyclonal antibody directed against the C-terminus of the CYP7A1 (18). To detect SREBP1 protein, cytoplasmic and nuclear protein preparations from liver were performed using the NE—PER reagent (Pierce), including Complete protease inhibitor (Roche), 1 mM phenyl-methylsulfonyl fluoride, 0.5 mM leupeptin, 5 μg/ml Calpain inhibitor I (Biomol, Pa.), following the manufacturer's instructions. 50 μg and 25 μg of cytoplasmic and nuclear liver protein fractions, respectively, were electrophoresed on NuPage Bis-Tris gels (Invitrogen) and transferred to nitrocellulose membranes. Membranes were blocked in 5% skimmed milk powder and incubated with a mouse monoclonal antibody raised against the N′-terminus of SREBP1 (Labvision Corporation, Calif.) at 1.5 μg/mL in 5% skimmed milk powder for two hours at room temperature. An HRP conjugated goat anti-mouse F(ab)2 antibody (Pierce) was used for detection of specific signals together with Supersignal reagent (Pierce) and a Fuji BAS 1800 analyzer (Fuji Photo Film Co.). To analyze phosphorylated liver proteins by western blot, total liver protein homogenates were prepared from frozen tissue by homogenization using a polytron followed by sonication in a buffer containing 20 mM Tris-Hcl, pH 7,4, 1% Triton X-100, 10% Glycerol, 150 mM NaCl, 2 mM EDTA, 25 mM betaglycerophosphate, 20 mM sodium floride, 1 mM sodium orthovanadate, 2 mM sodium pyrophosphate, 1 mM benzamidine, 1 mM phenyl-methylsulfonyl fluoride, 0.5 mM leupeptin, Complete proteinase inhibitor (Roche), and then centrifuged at 14 000 rpm in a microcentrifuge, and the supernatant was recovered. 50 μg protein was loaded on NuPage Bis-Tris gels (Invitrogen) and transferred to nitrocellulose membranes. […]

[3] = western blot with phosphospecific antibodies

With CCCCC1(CCCC)CN(c2ccccc2)c2cc(SC)c(OCC(=O)N[C@@H](C(=O)NCC(=O)O)c3ccccc3)cc2S(=O)(=O)C1 [Example 14, 1,1-Dioxo-3,3-dibutyl-5-phenyl-7-methylthio-8-(N-{ (R)-1′-phenyl-1′-[N′-(carboxymethyl)carbamoyl]methyl}carbamoylmethoxy)-2,3,4,5-tetrahydro-1,5-benzothiazepine] the “Glucose concentration, Baseline, Mean ± SD” value ([1]; patients with glucose >ULN, n=4, before treatment) was 129.8 ± 7.4 mg/dL, the “Glucose concentration, End of Treatment, Mean ± SD” value ([1]; patients with glucose >ULN, 10 mg, 56 days, n=4) was 82 ± 10.23 mg/dL and the “Glucose concentration % change baseline to end of treatment” value ([1]; patients with glucose >ULN, 10 mg, 56 days, p 0.013 vs placebo) was −36.9%. For the same molecule, the “Reduction of glucose concentration, baseline vs end of treatment” value ([1]; patients with glucose higher than ULN, 10 mg, 56 days) was 36%, the “Change of glucose concentration, baseline vs end of treatment” value ([1]; patients with glucose lower or equal to ULN) was “did not show any significant change” and the “Glucose concentration, Baseline, Mean ± SD” value ([1]; patients with glucose ≦ULN, n=25, before treatment) was 91.3 ± 7.52 mg/dL. The “Glucose concentration, End of Treatment, Mean ± SD” value ([1]; patients with glucose ≦ULN, 10 mg, 56 days, n=25) was 90.6 ± 12.96 mg/dL, the “Glucose concentration % change baseline to end of treatment” value ([1]; patients with glucose ≦ULN, 10 mg, 56 days, p 0.653 vs placebo) was −1% and the IC50 [2] was 1.2 nM. For the same molecule, the “Total plasma TG levels reduced” value (Slc10a2 protein; 11 days treatment) was 73%, the “Fasting levels of glucose reduced vs vehicle” value (Slc10a2 protein; 11 days treatment, blood glucose) was 30% and the “Fasting insulin levels reduced” value (Slc10a2 protein; 11 days treatment, plasma) was 50%. For the same molecule, the “Total plasma cholesterol increased” value (Slc10a2 protein; 11 days treatment, tendency) was 16%, the “FGF15 mRNA level” value (Slc10a2 protein; 11 days, distal ileum) was “significantly reduced” and the FXR gene expression (Slc10a2 protein; 11 days, distal ileum) was “unaltered”. For the same molecule, the “IBABP mRNA level” value (Slc10a2 protein; 11 days, distal ileum) was “significantly reduced”, the “SHP mRNA level” value (Slc10a2 protein; 11 days, distal ileum) was “significantly reduced” and the “Hepatic G6Pase expression” value (Slc10a2 protein; 11 days, liver) was “reduced”. The “Hepatic GK mRNA level” value (Slc10a2 protein; 11 days, liver) was “increased”, the “Hepatic LPK mRNA reduced” value (Slc10a2 protein; 11 days, liver) was 30% and the “Hepatic PEPCK expression” value (Slc10a2 protein; 11 days, liver) was “reduced”. The “Hepatic SREBP1c mRNA levels” value (Slc10a2 protein; 11 days, liver) was “markedly reduced”, the “Hepatic cholesterol and TG content” value (Slc10a2 protein; 11 days, liver, vs control) was “no difference” and the “Hepatic ACC mRNA level decreased” value (Slc10a2 protein; 11 days, liver, vs vehicle) was 50%. For the same molecule, the “Hepatic FAS mRNA level decreased” value (Slc10a2 protein; 11 days, liver, vs vehicle) was 80%, the “Hepatic SCD1 mRNA level” value (Slc10a2 protein; 11 days, liver, vs vehicle) was “not significantly altered” and the “Hepatic mRNA expression of FGF21” value (Slc10a2 protein; 11 days, liver, vs vehicle) was “doubled”. For the same molecule, the “Hepatic mRNA level of CYP7A1” value (Slc10a2 protein; 11 days, liver, vs vehicle) was “increased”, the “Akt serine 473 phosphorylation in liver lysates” value (Slc10a2 protein; [3]) was “reduced” and the “Mek1/2-Erk1/2 pathway activation in liver” value (Slc10a2 protein; [3]) was “reduced activation”.

For CCCCC1(CCCC)CN(c2ccccc2)c2cc(SC)c(OCC(=O)N[C@@H](C(=O)N[C@@H](CSC)C(=O)O)c3ccccc3)cc2S(=O)(=O)N1 [Example 4, 1,1-Dioxo-3,3-dibutyl-5-phenyl-7-methylthio-8-(N-{(R)-α-[N-((R)-1-carboxy-2-methylthioethyl)carbamoyl]benzyl}carbamoylmethoxy)-2,3,4,5-tetrahydro-1,2,5-benzothiadiazepine], the IC50 [2] was 0.35 nM.

In the case of CCCCC1(CCCC)CN(c2ccccc2)c2cc(SC)c(OCC(=O)N[C@@H](C(=O)N[C@@H](CC)C(=O)O)c3ccccc3)cc2S(=O)(=O)N1 [Example 3, 1,1-Dioxo-3,3-dibutyl-5-phenyl-7-methylthio-8-(N-{(R)-α-[N-((S)-1-carboxypropyl)carbamoyl]benzyl}carbamoylmethoxy)-2,3,4,5-tetrahydro-1,2,5-benzothiadiazepine], the IC50 [2] is reported as 0.18 nM.

In the case of CCCCC1(CCCC)CN(c2ccccc2)c2cc(SC)c(OCC(=O)N[C@@H](C(=O)N[C@@H](CC)C(=O)O)c3ccc(O)cc3)cc2S(=O)(=O)N1 [Example 5, 1,1-Dioxo-3,3-dibutyl-5-phenyl-7-methylthio-8-(N-{(R)-α-[N-((S)-1-carboxypropyl)carbamoyl]-4-hydroxybenzyl}carbamoylmethoxy)-2,3,4,5-tetrahydro-1,2,5-benzothiadiazepine], the IC50 [2] is reported as 0.16 nM.

CCCCC1(CCCC)CN(c2ccccc2)c2cc(SC)c(OCC(=O)N[C@@H](C(=O)NCC(=O)O)c3ccccc3)cc2S(=O)(=O)N1 [Example 1, 1,1-Dioxo-3,3-dibutyl-5-phenyl-7-methylthio-8-(N-{(R)-α-[N-(carboxymethyl)carbamoyl]benzyl}carbamovlmethoxv)-2,3,4,5-tetrahvdro-1. 2. 5-benzothiadiazepine] gave an IC50 [2] of 0.45 nM.

Work on CCCCC1(CCCC)CN(c2ccccc2)c2cc(SC)c(OCC(=O)N[C@@H](C(=O)N[C@@H](C)C(=O)O)c3ccc(O)cc3)cc2S(=O)(=O)N1 [Example 12] yielded an IC50 [2] of 0.3 nM.

CCCCC1(CCCC)CN(c2ccccc2)c2cc(SC)c(OCC(=O)N[C@@H](C(=O)N[C@H](C(=O)O)C(C)C)c3ccccc3)cc2S(=O)(=O)N1 [Example 7, 1,1-Dioxo-3,3-dibutyl-5-phenyl-7-methylthio-8-(N-{(R)-α-[N-((S)-1-carboxy-2-methylpropyl)carbamoyl]benzyl}carbamoylmethoxy)-2,3,4,5-tetrahydro-1,2,5-benzothiadiazepine] showed an IC50 [2] of 0.36 nM.

For CCCCC1(CCCC)CN(c2ccccc2)c2cc(SC)c(OCC(=O)N[C@@H](C(=O)N[C@@H](C)C(=O)O)c3ccccc3)cc2S(=O)(=O)C1 [Example 2, 1,1-Dioxo-3,3-dibutyl-5-phenyl-7-methylthio-8-(N-{(R)-α-[N′-((S)-1-carboxyethyl)carbamoyl]benzyl}carbamoylmethoxy)-2,3,4,5-tetrahydro-1,5-benzothiazepine], the IC50 [2] was 0.39 nM.

For CCCCC1(CCCC)CN(c2ccccc2)c2cc(SC)c(OCC(=O)N[C@@H](C(=O)N[C@H](C(=O)O)[C@@H](C)O)c3ccc(O)cc3)cc2S(=O)(=O)N1 [Example 8, 1,1-Dioxo-3,3-dibutyl-5-phenyl-7-methylthio-8-(N-{(R)-α-[N-((S)-1-carboxy-2-(R)-hydroxypropyl)carbamoyl]-4-hydroxybenzyl}carbamoylmethoxy)-2,3,4,5-tetrahydro-1,2,5-benzothiadiazepine], the IC50 [2] was 0.11 nM.

Work on CCCCC1(CCCC)CN(c2ccccc2)c2cc(SC)c(OCC(=O)N[C@@H](C(=O)N[C@@H](C)C(=O)O)c3ccccc3)cc2S(=O)(=O)N1 [Example 10, 1,1-Dioxo-3,3-dibutyl-5-phenyl-7-methylthio-8-(N-{(R)-α-[N-((S)-1-carboxyethyl)carbamoyl]benzyl}carbamoylmethoxy)-2,3,4,5-tetrahydro-1,2,5-benzothiadiazepine] yielded an IC50 [2] of 0.2 nM.
